Reference: patent USRE37781E1, “Substituted cyclic carbonyls and derivatives thereof useful as retroviral protease inhibitors” (DuPont Pharmaceuticals Company, priority 1991, dated 2002)
≈ marks a conversion by molar mass, not a printed value. Read-outs that look alike come from different tables or passages of the source.

Experiments:
[1] = target: single-chain tethered dimer of HIV protease (Human immunodeficiency virus 1, UniProt P04585); experiment: biochemical; type: biochemical; design: fused on or other part: A second copy of the same protease unit is joined to the first by a short peptide tether, giving one polypeptide
HIV-1 (RF) in MT-2 cells = experiment: microbe, parasite or virus in culture; type: cell-based
Outline: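 HIV-1 laboratory strains (RF, MN, IIIB) grown in H9 cells in RPMI 1640 with 5% FCS; infections in MT-2 cells. Viral RNA quantified by hybridization with biotinylated gag/pol capture probes on streptavidin plates and alkaline phosphatase-conjugated reporter probes; BH10 gag-pol in vitro transcripts serve as RNA standards.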

[2] = read-out: HPLC K1, Table 2d, HIV protease inhibition, HPLC method
[3] = Human immunodeficiency virus 1, MT2, 48 h, Table 2d, HIV RNA assay, read-out: IC90
[4] = Table 2d, HIV protease inhibition, HPLC method, read-out: HPLC K1
[5] = read-out: HPLC K1, Table 2d, class symbols
[6] = Human immunodeficiency virus 1, MT2, 48 h, Table 2d, class symbols, read-out: IC90
[7] = HIV protease inhibition, HPLC method, Table 2d, read-out: HPLC K1
[8] = HIV RNA assay, HIV-1 infected MT-2 cells, Table 2d
[9] = Table 2d, class symbols, read-out: HPLC K1

Cc1ccc(S(=O)(=O)NN=Cc2cccc(CN3C(=O)N(Cc4cccc(C=NNS(=O)(=O)c5ccc(C)cc5)c4)C(Cc4ccccc4)C(O)C(O)C3Cc3ccccc3)c2)cc1 (centres unmarked) [Example 15YF]
Ki [1, 2]: 10 to 1000 nM | IC90 (HIV-1 (RF) in MT-2 cells; [3]): < 10 µg/mL

O=S1(=O)N(Cc2cccc(CO)c2)C(Cc2ccc(F)cc2)C(O)C(O)C(Cc2ccc(F)cc2)N1Cc1cccc(CO)c1 (centres unmarked) [31C]
Ki ([1]; Table 2u (second printing), HPLC method, read-out: K1 (HPLC)): < 10 nM | Ki ([1]; Table 2u, HPLC method, read-out: K1 (HPLC)): < 10 nM | IC90 (HIV-1 (RF) in MT-2 cells; Table 2u): +++ (+++=<10 μg/mL) | IC90 (HIV-1 (RF) in MT-2 cells; Table 2u (second printing)): +++ (+++=<10 μg/mL)

O=C1Cc2cc(CN3C(=O)N(Cc4ccc5c(c4)CC(=O)N5)C(Cc4ccccc4)C(O)C(O)C3Cc3ccccc3)ccc2N1 (centres unmarked) [15DD]
Ki [1, 4]: < 10 nM | IC90 (HIV-1 (RF) in MT-2 cells; Table 2d, HIV RNA assay): +++ (+++=<10 μg/mL)

O=C1N(CCCCCCCCO)C(Cc2ccccc2)C(O)C(O)C(Cc2ccccc2)N1CCCCCCCCO (centres unmarked) [Example 12K]
Ki [1, 5]: 10 to 1000 nM | IC90 (HIV-1 (RF) in MT-2 cells; [6]): < 10 µg/mL

O=C(NCCCCCN1C(=O)N(CCCCCNC(=O)c2ccccc2F)C(Cc2ccccc2)C(O)C(O)C1Cc1ccccc1)c1ccccc1F (centres unmarked) [15FB]
Ki [1, 7]: 10 to 1000 nM | IC90 (HIV-1 (RF) in MT-2 cells; [8]): +++ (+++=<10 μg/mL)

CCN(CC)Cc1cccc(CN2C(=O)N(Cc3cccc(CN(CC)CC)c3)C(Cc3ccccc3)C(O)C(O)C2Cc2ccccc2)c1 (centres unmarked) [Example 15XF]
Ki [1, 2]: 10 to 1000 nM | IC90 (HIV-1 (RF) in MT-2 cells; [3]): < 10 µg/mL

O=C1N(CCCCC(O)CBr)C(Cc2ccccc2)C(O)C(O)C(Cc2ccccc2)N1CCCCC(O)CBr (centres unmarked) [Example 13G]
Ki [1, 5]: < 10 nM | IC90 (HIV-1 (RF) in MT-2 cells; [6]): < 10 µg/mL

CC(C)(C)C(=O)c1cccc(CN2C(=O)N(Cc3cccc(C(=O)C(C)(C)C)c3)C(Cc3ccccc3)C(O)C(O)C2Cc2ccccc2)c1 (centres unmarked) [Example 15XH]
Ki [1, 2]: < 10 nM | IC90 (HIV-1 (RF) in MT-2 cells; [3]): < 10 µg/mL

O=P1(Oc2ccccc2)N[C@H](Cc2ccccc2)[C@H](O)[C@@H](O)[C@@H](Cc2ccccc2)N1 (some centres unmarked) [28A]
Ki ([1]; Table 2r, read-out: Ki HPLC): > 1000 nM | IC90 (HIV-1 (RF) in MT-2 cells; Table 2r): ++ (++=10 to 100 μg/mL)

NC(=NO)c1cccc(CN2C(=S)N(Cc3ccc(CO)cc3)C(Cc3ccccc3)C(O)C(O)C2Cc2ccccc2)c1 (centres unmarked) [Example 27I]
Ki ([1]; Table 2q, read-out: HPLC Ki): < 10 nM | IC90 (HIV-1 (RF) in MT-2 cells; Table 2q): +++ (+++=<10 μg/mL)

CC(CCCCN1C(=O)N(CCCCC(C)=NO)C(Cc2ccccc2)C(O)C(O)C1Cc1ccccc1)=NO (centres unmarked) [Example 15WC]
Ki [1, 5]: 10 to 1000 nM | IC90 (HIV-1 (RF) in MT-2 cells; [6]): < 10 µg/mL

NC(=O)c1cc(CN2C(=O)N(Cc3ccc(F)c(C(N)=O)c3)C(Cc3ccccc3)C(O)C(O)C2Cc2ccccc2)ccc1F (centres unmarked) [15ED]
Ki [1, 4]: < 10 nM | IC90 (HIV-1 (RF) in MT-2 cells; Table 2d, HIV RNA assay): ++ (++=10 to 100 μg/mL)

COc1cccc(CC2C(O)C(O)C(Cc3cccc(OC)c3)N(Cc3cccc(OC)c3)C(=O)N2Cc2cccc(OC)c2)c1 (centres unmarked) [20AU]
Ki ([1]; Table 2i, read-out: HPLC Ki): < 10 nM | IC90 (HIV-1 (RF) in MT-2 cells; Table 2i): +++ (+++=<10 μg/mL)

Cl.Cl.O=C(CN1CCOCC1)NCCCCCN1C(=O)N(CCCCCNC(=O)CN2CCOCC2)C(Cc2ccccc2)C(O)C(O)C1Cc1ccccc1 (centres unmarked) [15FE]
Ki [1, 7]: 10 to 1000 nM | IC90 (HIV-1 (RF) in MT-2 cells; [8]): ++/+ (The ++/+ is used in the cases where an IC90 was determined to be >50 μg/mL)

O=C1N(CCOCCO)C(Cc2ccccc2)C(O)C(O)C(Cc2ccccc2)N1CCOCCO (centres unmarked) [Example 12U]
Ki [1, 5]: > 1000 nM | IC90 (HIV-1 (RF) in MT-2 cells; [6]): 10 to 100 µg/mL (≈ 19.9 to 199 µM)

NC(=O)c1cccc(CN2C(=O)N(Cc3cccc(C(N)=O)c3)C(Cc3ccc(F)c(F)c3)C(O)C(O)C2Cc2ccc(F)c(F)c2)c1 (centres unmarked) [20AC]
Ki ([1]; Table 2i, read-out: HPLC Ki): < 10 nM | IC90 (HIV-1 (RF) in MT-2 cells; Table 2i): +++ (+++=<10 μg/mL)

O=C1N(Cc2cccc(O)c2)C(CCc2ccccc2)[C@@H](O)[C@@H](Cc2ccccc2)N1Cc1cccc(O)c1 (some centres unmarked) [Example 8I]
Ki ([1]; read-out: Ki (HPLC), Table 1e, cells marked (HPLC)): < 10 nM | IC90 (HIV-1 (RF) in MT-2 cells; Human immunodeficiency virus 1, MT2, Table 1e, read-out: IC90): < 10 µg/mL

O=C1N(Cc2cnccc2Cl)C(Cc2ccccc2)C(O)C(O)C(Cc2ccccc2)N1Cc1cnccc1Cl (centres unmarked) [Example 13Z]
Ki [1, 9]: 10 to 1000 nM | IC90 (HIV-1 (RF) in MT-2 cells; Table 2d, class symbols): +++ (+++=<10 μg/mL)

CC(=NO)c1cccc(CN2C(Cc3ccccc3)C(O)C(O)C(Cc3ccccc3)N(Cc3cccc(C(C)=NO)c3)S2(=O)=O)c1 (centres unmarked) [23U]
Ki ([1]; Table 2m, read-out: HPLC Ki): < 10 nM | IC90 (HIV-1 (RF) in MT-2 cells; Table 2m): +++ (+++=<10 μg/mL)

O=C(NCCN1CCOCC1)c1cccc(CN2C(=O)N(Cc3cccc(C(=O)NCCN4CCOCC4)c3)C(Cc3ccccc3)C(O)C(O)C2Cc2ccccc2)c1 (centres unmarked) [15XU]
Ki [1, 4]: < 10 nM | IC90 (HIV-1 (RF) in MT-2 cells; Table 2d, HIV RNA assay): +++ (+++=<10 μg/mL)

CCN(CC)C(=O)c1cccc(CN2C(=O)N(Cc3cccc(C(=O)OC)c3)C(Cc3ccccc3)C(O)C(O)C2Cc2ccccc2)c1 (centres unmarked) [11T]
Ki [1, 5]: < 10 nM | IC90 (HIV-1 (RF) in MT-2 cells; [6]): < 10 µg/mL

O=C1N(CCCCCO)C(Cc2ccccc2)C(O)C(O)C(Cc2ccccc2)N1Cc1cccc(O)c1 (centres unmarked) [Example 15VR]
Ki [1, 5]: < 10 nM | IC90 (HIV-1 (RF) in MT-2 cells; [6]): < 10 µg/mL

O=C1NC(Cc2ccccc2)C(O)C(O)C(Cc2ccccc2)N1CC1CCC(=NO)CC1 (centres unmarked) [Example 15VC]
Ki [1, 9]: 10 to 1000 nM | IC90 (HIV-1 (RF) in MT-2 cells; Table 2d, class symbols): ++/+ (The ++/+ is used in the cases where an IC90 was determined to be >50 μg/mL)

O=C1NC(Cc2ccccc2)C(O)C(O)C(Cc2ccccc2)N1 (centres unmarked) [Example 13P]
Ki [1, 9]: > 1000 nM | IC90 (HIV-1 (RF) in MT-2 cells; Table 2d, class symbols): + (+=>100 μg/mL)

CN1CCN(Cc2cccc(C(=O)OCc3ccc(CN4C(=O)N(Cc5ccc(COC(=O)c6cccc(CN7CCN(C)CC7)c6)cc5)[C@H](Cc5ccccc5)[C@H](O)[C@@H](O)[C@H]4Cc4ccccc4)cc3)c2)CC1.Cl.Cl [29Y]
Ki ([1]; Table 2s, read-out: Ki (HPLC)): 10 to 1000 nM | IC90 (HIV-1 (RF) in MT-2 cells; Table 2s): +++ (+++=<10 μg/mL)

CN(C)P1(=O)N(Cc2ccc(CO)cc2)[C@H](Cc2ccccc2)[C@H](O)[C@@H](O)[C@@H](Cc2ccccc2)N1Cc1ccc(CO)cc1 (some centres unmarked) [28I]
Ki ([1]; Table 2r, read-out: Ki HPLC): 10 to 1000 nM | IC90 (HIV-1 (RF) in MT-2 cells; Table 2r): ++ (++=10 to 100 μg/mL)

O=C1N(Cc2ccccc2)C(Cc2ccccc2)C(O)C(O)C(Cc2ccccc2)N1Cc1ccccc1 (centres unmarked) [Example 13L]
Ki [1, 5]: < 10 nM | IC90 (HIV-1 (RF) in MT-2 cells; [6]): < 10 µg/mL

O=C1N(CCCCCCO)C(Cc2ccccc2)C(O)C(O)C(Cc2ccccc2)N1Cc1ccc2ccccc2c1 (centres unmarked) [Example 15VQ]
Ki [1, 5]: < 10 nM | IC90 (HIV-1 (RF) in MT-2 cells; [6]): < 10 µg/mL

O=C1NC(Cc2ccccc2)C(O)C(O)C(Cc2ccccc2)N1CCCCCCCO (centres unmarked) [Example 12o]
Ki [1, 5]: 10 to 1000 nM | IC90 (HIV-1 (RF) in MT-2 cells; [6]): 10 to 100 µg/mL (≈ 22.7 to 227 µM)

O=C1N(Cc2cnccc2O)C(Cc2ccccc2)C(O)C(O)C(Cc2ccccc2)N1Cc1cnccc1O (centres unmarked) [Example 14C]
Ki [1, 9]: 10 to 1000 nM | IC90 (HIV-1 (RF) in MT-2 cells; Table 2d, class symbols): + (+=>100 μg/mL)

O=C1N(CCCCC(Br)CBr)C(Cc2ccccc2)C(O)C(O)C(Cc2ccccc2)N1CCCCC(Br)CBr (centres unmarked) [Example 13F]
Ki [1, 5]: 10 to 1000 nM | IC90 (HIV-1 (RF) in MT-2 cells; [6]): > 100 µg/mL

O=C1N(Cc2ccc(CO)cc2)C(Cc2ccccc2)C(O)C(O)C(Cc2ccccc2)N1Cc1ccc(CO)cc1 (centres unmarked) [Example 13S]
Ki [1, 5]: 10 to 1000 nM | IC90 (HIV-1 (RF) in MT-2 cells; Table 2d, class symbols): ++ (++=10 to 100 μg/mL)

O=C1N(Cc2ccc(CO)cc2)C(Cc2ccccc2)C(O)C(O)C(Cc2ccccc2)N1Cc1ccc(CO)cc1 (centres unmarked) [10Z]
Ki [1, 5]: > 1000 nM | IC90 (HIV-1 (RF) in MT-2 cells; Table 2d, class symbols): ++ (++=10 to 100 μg/mL)
